The values that follow come from the CATMoS acute toxicity set (Mansouri et al. 2021).

One data set can be described thus: Very toxic (VT; LD50≤50mg/kg vs. all others). The settings on record: rat; in vivo; po. From the text: (§1) […]The data set underlying the modeling effort for this project was initially compiled by NICEATM and U.S. EPA’s CCTE. Briefly, LD50 data were collected from rat acute oral systemic toxicity tests, including limit tests, ranges/confidence intervals, and discrete LD50 values. The full data set included 21,200 LD50 entries for 15,688 substances. […] Data were reviewed to ensure that LD50 values with obvious errors in the extracted data such as unit conversion errors (e.g., comma and decimal separator misplacements) were either fixed or removed. After this review, 16,209 LD50 values remained. Many of the chemicals represented had multiple LD50 entries, requiring that a single representative value per Chemical Abstracts Service Registry Number (CASRN) identifier be defined to facilitate modeling efforts. Based on ATWG feedback and to define the representative LD50 as a protective value while accounting for the distribution across multiple LD50s, the median of the lowest quartile was computed using only discrete LD50 values (omitting limit test data and range and confidence interval data). A detailed summary of the data compilation is available online on the NICEATM webpage dedicated to the collaborative modeling project (NTP 2020).
(§2) […][…] For categorical designations, limit test and range/confidence interval LD50 data were integrated wherever possible. As such, the number of chemicals with end point values/calls varies across the modeling end points (Table 3) based on whether chemicals had representative LD50 values and/or other data. If a chemical had both, the representative value was used to determine categorical calls rather than limit test data. Some data were useable only for certain end points and categories depending on the thresholds. For example, ranges that spanned multiple hazard categories were considered only for the binary (very toxic/nontoxic) end points and omitted from rendering a determination for hazard category assignment.
(§3) […]The final data set comprising 11,992 chemicals was split into training and evaluation sets […], respectively. This process was performed semirandomly by ordering chemicals based on the five end points (categorical and continuous LD50 values) and partitioning every fourth record into the evaluation set accordingly. This approach was taken to ensure an equivalent distribution of the LD50 values and the different hazard categories between the training and the evaluation sets without supervised sampling of the chemicals based on structures (Figure 1A). The sources of the chemical structures were also kept equivalent between the two sets, with chemical structures obtained from DSSTox, being the highest quality, representing over 75% of each set (Figure 1B).
For the molecule `CCCCCCCCCCCCCCCCCCOP1OCC2(CO1)COP(OCCCCCCCCCCCCCCCCCC)OC2` (centres undefined), the very_toxic entry is listed as “FALSE (not_very_toxic)”.

Take `CSc1c(C)cc(O)cc1C`: the very_toxic result is “FALSE (not_very_toxic)”.

`CNC1=C(c2cccc(C(F)(F)F)c2)C(=O)C(c2ccccc2)O1` (centres undefined): the very_toxic entry is reported as “FALSE (not_very_toxic)”.

Turning to `O=C1NC(=O)C2CCCC12` (centres undefined), the very_toxic result was “FALSE (not_very_toxic)”.

Turning to `COCCOCCOCCOB(OCCOCCOCCOC)OCCOCCOCCOC`, the very_toxic entry is given as “FALSE (not_very_toxic)”.

As for `Nc1ccc(N)c2c1C(=O)c1c(N)ccc(N)c1C2=O`, the very_toxic entry is recorded as “FALSE (not_very_toxic)”.

Take `CCCCCCCCCCCCCC[N+](C)(C)[O-]`: the very_toxic result was “FALSE (not_very_toxic)”.

The nature of the next data set: EPA categories. The settings on record: rat; in vivo; po.
Description: as §1, §2, §3
Turning to `O=C1c2cccc(Sc3ccccc3)c2C(=O)c2c(Sc3ccccc3)cccc21`, the EPA category is 3.

`Cc1cccc(S(=O)(=O)O)c1C` gave an EPA category of 3.

As to `NC(N)=Nc1ccccc1`, the EPA category was determined as 3.

`O=[N+]([O-])c1cc(N(CCO)CCO)ccc1NCCO` registered an EPA category of 3.

As to `Cc1cncc(C)c1`, the EPA category is 2.

Turning to `CC(Cl)(Cl)CC(Cl)(Cl)Cl`, the EPA category was determined as 2.

`CCO[SiH](OCC)OCC` came in with an EPA category of 3.

The nature of the next data set: Nontoxic (NT; LD50>2,000mg/kg vs. all others). The settings on record: rat; in vivo; po.
Description: as §1, §2, §3
For the molecule `CCC(C)c1cccc(C(C)CC)c1O` (centres undefined), the nontoxic result is listed as “FALSE (not_nontoxic)”.

Turning to `Cc1cc(C)c(O)c(C(C)(C)C)c1`, the nontoxic result is recorded as “FALSE (not_nontoxic)”.

As to `CO[Si](C)(CN=C=O)OC`, the nontoxic result is “FALSE (not_nontoxic)”.

On to `CC12CC(N3CCOCC3)C(O)CC1CCC1C2CCC2(C)C(O)C(N3CCCC3)CC12` (centres undefined), for which the nontoxic result is “FALSE (not_nontoxic)”.

Turning to `CCC[Si](Cl)(Cl)Cl`, the nontoxic entry is reported as “FALSE (not_nontoxic)”.

On to `COC1CCCC1`, for which the nontoxic result is recorded as “FALSE (not_nontoxic)”.

In the case of `O=C1c2ccccc2C(=O)N1[C@@H]1CCCNC1`, the nontoxic entry is reported as “FALSE (not_nontoxic)”.

Consider `Cc1ccc(C(C)(C)C)c(O)c1`, for which the nontoxic result is “FALSE (not_nontoxic)”.

In the case of `CC(C)OC(=O)NP(N)(N)=O`, the nontoxic entry is recorded as “FALSE (not_nontoxic)”.

Regarding `C1CCC2=NCCCN2CC1`, the nontoxic entry is given as “FALSE (not_nontoxic)”.
